Results: ChEMBL document CHEMBL1142906, “Structure-activity relationships of novel piperazines as antagonists for the melanocortin-4 receptor” (Bioorg Med Chem, 2007)

Target: Melanocortin receptor 4 (Homo sapiens, UniProt P32245)
Assay: Displacement of [125I]Nle4-D-Phe7-alpha-MSH from human MC4 receptor expressed in COS1 cells
Type: cell-based, COS-1

Sequence of Melanocortin receptor 4 (P32245 whole entry): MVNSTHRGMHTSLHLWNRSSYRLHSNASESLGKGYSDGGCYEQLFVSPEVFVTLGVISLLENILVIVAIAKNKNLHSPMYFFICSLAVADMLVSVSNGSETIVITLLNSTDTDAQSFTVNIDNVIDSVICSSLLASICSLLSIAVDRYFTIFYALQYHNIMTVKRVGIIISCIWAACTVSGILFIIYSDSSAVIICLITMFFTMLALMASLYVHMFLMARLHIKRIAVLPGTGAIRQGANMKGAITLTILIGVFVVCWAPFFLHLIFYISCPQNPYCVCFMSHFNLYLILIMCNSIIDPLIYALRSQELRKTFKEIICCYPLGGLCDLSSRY

SMILES	IC50 [µM]
CN1CCN(C(CN2CCN(CCCCc3cccc4ccccc34)CC2)c2ccc(Cl)cc2)CC1 (racemic)	0.132
COc1ccc(CCCCN2CCN(CC(c3ccc(F)cc3)N3CCN(C)CC3)CC2)c2ccccc12 (racemic)	0.228
CN1CCN(C(CN2CCN(CCCCc3cccc4ccccc34)CC2)c2cccc(F)c2)CC1 (racemic)	0.653
CN1CCN(C(CN2CCN(CCCCc3cccc4ccccc34)CC2)c2ccc(N)cc2)CC1 (racemic)	3.59
CC(C)N1CCN(C(CN2CCN(CCCc3ccccc3-c3ccc(N(C)C)cc3)CC2)c2ccc(F)cc2)CC1 (racemic)	0.0925
COc1cccc(-c2ccccc2)c1CCCN1CCN(CC(c2ccc(F)cc2)N2CCN(C(C)C)CC2)CC1 (racemic)	0.0152
CN1CCN(C(CN2CCN(CCCCc3cccc4ccccc34)CC2)c2ccccc2Br)CC1 (racemic)	2.3
COc1ccc2ccccc2c1CCCCN1CCN(CC(c2ccc(F)cc2)N2CCN(C(C)C)CC2)CC1 (single isomer, unassigned; (-))	0.00813
CC(C)N1CCN(C(CN2CCN(CCCc3ccccc3-c3ccc(OC(F)(F)F)cc3)CC2)c2ccc(F)cc2)CC1 (racemic)	0.0859
COc1ccc(C(CN2CCN(CCCCc3cccc4ccccc34)CC2)N2CCN(C)CC2)cc1 (racemic)	0.871
Cc1ccc(-c2ccccc2CCCN2CCN(CC(c3ccc(F)cc3)N3CCN(C(C)C)CC3)CC2)cc1 (racemic)	0.0418
CN1CCN(C(CN2CCN(CCc3cccc4ccccc34)CC2)c2ccc(F)cc2)CC1 (racemic)	0.567
CC(C)N1CCN(C(CN2CCN(CCCCc3c(Br)ccc4ccccc34)CC2)c2ccc(F)cc2)CC1 (racemic)	0.0368
CC(C)Oc1ccc2ccccc2c1CCCCN1CCN(CC(c2ccc(F)cc2)N2CCN(C(C)C)CC2)CC1 (racemic)	0.022
CN1CCN(C(CN2CCN(CCCCc3cccc4ccccc34)CC2)c2ccc(F)cc2)CC1 (racemic)	0.118
CN1CCN(C(CN2CCN(CCCCc3cccc4ccccc34)CC2)c2ccc(Br)cc2)CC1 (racemic)	0.159
CN1CCN(C(CN2CCN(CCCCc3cccc4ccccc34)CC2)c2ccc(C(F)(F)F)cc2)CC1 (racemic)	0.226
CC(C)N1CCN(C(CN2CCN(CCCc3ccccc3-c3ccc(C(C)(C)C)cc3)CC2)c2ccc(F)cc2)CC1 (racemic)	0.1
CN1CCN(C(CN2CCN(CCCc3cccc4ccccc34)CC2)c2ccc(F)cc2)CC1 (racemic)	0.208
CCN1CCN(C(CN2CCN(CCCCc3cccc4ccccc34)CC2)c2ccc(F)cc2)CC1 (racemic)	0.105
Fc1ccc(C(CN2CCN(CCCCc3cccc4ccccc34)CC2)N2CCN(c3ccccc3)CC2)cc1 (racemic)	> 10
CN1CCN(C(CN2CCN(Cc3cccc4ccccc34)CC2)c2ccc(F)cc2)CC1 (racemic)	0.594
CN1CCN(C(CN2CCN(CCCCc3ccc4ccccc4c3)CC2)c2ccc(F)cc2)CC1 (racemic)	0.336
CCCN1CCN(C(CN2CCN(CCCCc3cccc4ccccc34)CC2)c2ccc(F)cc2)CC1 (racemic)	0.177
CN1CCN(C(CN2CCN(Cc3ccc4ccccc4c3)CC2)c2ccc(F)cc2)CC1 (racemic)	1.25
Cc1ccc(C(CN2CCN(CCCCc3cccc4ccccc34)CC2)N2CCN(C)CC2)cc1 (racemic)	0.296
CN1CCN(C(CN2CCN(CCCCc3cccc4ccccc34)CC2)c2ccc([N+](=O)[O-])cc2)CC1 (racemic)	0.263
COc1ccc2ccccc2c1CCCCN1CCN(CC(c2ccc(F)cc2)N2CCN(C(C)C)CC2)CC1 (racemic)	0.0127

SMILES	IC50 [µM]
COc1ccc2ccccc2c1CCCCN1CCN(CC(c2ccc(F)cc2)N2CCN(C(C)C)CC2)CC1 (stereo in doubt; (+)-10bg)	0.022
CC(C)N1CCN(C(CN2CCN(CCCCc3ccccc3-c3ccccc3)CC2)c2ccc(F)cc2)CC1 (racemic)	0.0651
COc1ccc2ccccc2c1CCCCN1CCN(CC(c2ccc(F)cc2)N2CCN(C3CCCC3)CC2)CC1 (racemic)	0.0472
CC(C)N1CCN(C(CN2CCN(CCCc3ccc(-c4ccccc4)cc3)CC2)c2ccc(F)cc2)CC1 (racemic)	0.243
CN1CCN(C(CN2CCN(CCCCCCc3cccc4ccccc34)CC2)c2ccc(F)cc2)CC1 (racemic)	0.341
CC(C)N1CCN(C(CN2CCN(CCCc3cccc(-c4ccccc4)c3)CC2)c2ccc(F)cc2)CC1 (racemic)	0.156
CN1CCN(C(CN2CCN(CCCCc3cccc4ccccc34)CC2)c2cccc(Br)c2)CC1 (racemic)	0.565
CC(C)N1CCN(C(CN2CCN(CCCc3ccccc3-c3ccc(Cl)cc3)CC2)c2ccc(F)cc2)CC1 (racemic)	0.0532
CC(C)N1CCN(C(CN2CCN(CCCc3ccccc3-c3ccc(C(F)(F)F)cc3)CC2)c2ccc(F)cc2)CC1 (racemic)	0.0628
CCC(CC)N1CCN(C(CN2CCN(CCCCc3c(OC)ccc4ccccc34)CC2)c2ccc(F)cc2)CC1 (racemic)	0.0828
CC(C)N1CCN(C(CN2CCN(CCCCc3cccc4ccccc34)CC2)c2ccc(F)cc2)CC1 (racemic)	0.0723
COc1ccc(-c2ccccc2CCCN2CCN(CC(c3ccc(F)cc3)N3CCN(C(C)C)CC3)CC2)cc1 (racemic)	0.0426
CN1CCN(C(CN2CCN(CCCCCc3cccc4ccccc34)CC2)c2ccc(F)cc2)CC1 (racemic)	0.218
Fc1ccc(C(CN2CCN(CCCCc3cccc4ccccc34)CC2)N2CCNCC2)cc1 (racemic)	0.303
COc1ccc2ccccc2c1CCCCN1CCN(CC(c2ccc(F)cc2)N2CCN(C(C)(C)C)CC2)CC1 (racemic)	0.018
CN1CCN(C(CN2CCN(CCCc3ccc4ccccc4c3)CC2)c2ccc(F)cc2)CC1 (racemic)	1.19
Fc1ccc(C(CN2CCN(CCCCc3cccc4ccccc34)CC2)N2CCN(C3CC3)CC2)cc1 (racemic)	0.147
CCOc1ccc2ccccc2c1CCCCN1CCN(CC(c2ccc(F)cc2)N2CCN(C(C)C)CC2)CC1 (racemic)	0.026
CC(C)N1CCN(C(CN2CCN(CCCc3ccccc3-c3ccc(-c4ccccc4)cc3)CC2)c2ccc(F)cc2)CC1 (racemic)	0.228
CN1CCN(C(CN2CCN(CCCCc3cccc4ccccc34)CC2)c2ccc(-c3ccccc3)cc2)CC1 (racemic)	0.756
Fc1ccc(C(CN2CCN(CCCCc3cccc4ccccc34)CC2)N2CCN(C3CCCCC3)CC2)cc1 (racemic)	0.241
CC(C)N1CCN(C(CN2CCN(CCCCc3c(O)ccc4ccccc34)CC2)c2ccc(F)cc2)CC1 (racemic)	0.131
CC(C)N1CCN(C(CN2CCN(CCCc3ccccc3-c3ccccc3F)CC2)c2ccc(F)cc2)CC1 (racemic)	0.0368
CN1CCN(C(CN2CCN(CCc3ccc4ccccc4c3)CC2)c2ccc(F)cc2)CC1 (racemic)	1.87
CN1CCN(C(CN2CCN(CCCCc3cccc4ccccc34)CC2)c2ccccc2)CC1 (racemic)	0.745
COc1ccc2ccccc2c1CCCCN1CCN(CC(c2ccc(F)cc2)N2CCN(C)CC2)CC1 (racemic)	0.0573
CC(C)N1CCN(C(CN2CCN(CCc3ccccc3-c3ccccc3)CC2)c2ccc(F)cc2)CC1 (racemic)	0.186
